Test [1] concerns the target T1, Amine oxidase [flavin-containing] A (Homo sapiens, UniProt P21397).
T1 sequence (P21397 whole entry): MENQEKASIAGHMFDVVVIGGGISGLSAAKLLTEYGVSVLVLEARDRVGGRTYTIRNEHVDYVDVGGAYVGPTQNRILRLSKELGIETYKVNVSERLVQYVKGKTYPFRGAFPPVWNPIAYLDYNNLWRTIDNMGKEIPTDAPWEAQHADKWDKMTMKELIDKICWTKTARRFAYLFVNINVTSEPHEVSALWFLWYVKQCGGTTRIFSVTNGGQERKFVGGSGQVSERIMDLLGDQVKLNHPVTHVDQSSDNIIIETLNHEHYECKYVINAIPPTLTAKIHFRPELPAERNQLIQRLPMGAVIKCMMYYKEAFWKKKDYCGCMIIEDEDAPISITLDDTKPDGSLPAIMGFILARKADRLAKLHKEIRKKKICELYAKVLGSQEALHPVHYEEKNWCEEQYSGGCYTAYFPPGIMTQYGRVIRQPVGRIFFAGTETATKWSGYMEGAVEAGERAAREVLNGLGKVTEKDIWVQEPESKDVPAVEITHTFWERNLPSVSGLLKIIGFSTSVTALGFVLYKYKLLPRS
The test is described as follows: Inhibition of recombinant human MAO-A.

The species named for test [2] is Homo sapiens. The test is described as follows: Selectivity index, ratio of IC50 for recombinant human MAO-A to IC50 for recombinant human MAO-B.
The target of test [3] is T2, Amine oxidase [flavin-containing] B (Homo sapiens, UniProt P27338).
T2 sequence (P27338 whole entry): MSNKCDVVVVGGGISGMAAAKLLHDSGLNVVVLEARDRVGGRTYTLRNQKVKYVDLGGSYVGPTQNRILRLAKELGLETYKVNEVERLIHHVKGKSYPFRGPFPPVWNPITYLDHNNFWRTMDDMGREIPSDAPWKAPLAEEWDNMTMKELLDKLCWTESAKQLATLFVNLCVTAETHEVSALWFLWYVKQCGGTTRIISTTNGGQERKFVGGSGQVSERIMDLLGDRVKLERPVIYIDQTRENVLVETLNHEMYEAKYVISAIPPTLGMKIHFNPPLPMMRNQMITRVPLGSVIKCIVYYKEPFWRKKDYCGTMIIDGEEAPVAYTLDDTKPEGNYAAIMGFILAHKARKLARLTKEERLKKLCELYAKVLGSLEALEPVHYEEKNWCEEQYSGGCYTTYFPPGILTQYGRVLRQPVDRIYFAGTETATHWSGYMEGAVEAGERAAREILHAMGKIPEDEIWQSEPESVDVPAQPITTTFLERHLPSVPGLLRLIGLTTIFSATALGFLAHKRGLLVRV
The test is described as follows: Inhibition of recombinant human MAO-B.

The species named for test [4] is Homo sapiens. The test is described as follows: Selectivity index, ratio of IC50 for human erythrocytes Ache to IC50 for human serum BuChe.
For test [5], the target named is Cholinesterase (Homo sapiens, UniProt P06276). The test is described as follows: Inhibition of human serum BuChE using acetylcholine iodide as substrate incubated for 15 mins by Ellman's method. On the technique in general: DTNB colorimetry detects thiols as they appear.
Test [6] has as its target Acetylcholinesterase (Homo sapiens, UniProt P22303). The test is described as follows: Inhibition of human erythrocytes AChE using acetylcholine iodide as substrate incubated for 15 mins by Ellman's method.
The target in test [7] is Cholinesterase (Equus caballus, UniProt P81908). The test is described as follows: Inhibition of equine serum BuChE using BTC as substrate after 15 mins by Ellman's method.
A short description of test [8]: Selectivity index, ratio of IC50 for Electrophorus electricus AChE to IC50 for equine serum BuChE.
Test [9] has as its target Acetylcholinesterase (Electrophorus electricus, UniProt O42275). The test is described as follows: Inhibition of Electrophorus electricus AChE using acetylcholine iodide as substrate incubated for 15 mins by Ellman's method.

Structures are written as SMILES.

Acetylcholinesterase (Electrophorus electricus, UniProt O42275), sequence (O42275 whole entry): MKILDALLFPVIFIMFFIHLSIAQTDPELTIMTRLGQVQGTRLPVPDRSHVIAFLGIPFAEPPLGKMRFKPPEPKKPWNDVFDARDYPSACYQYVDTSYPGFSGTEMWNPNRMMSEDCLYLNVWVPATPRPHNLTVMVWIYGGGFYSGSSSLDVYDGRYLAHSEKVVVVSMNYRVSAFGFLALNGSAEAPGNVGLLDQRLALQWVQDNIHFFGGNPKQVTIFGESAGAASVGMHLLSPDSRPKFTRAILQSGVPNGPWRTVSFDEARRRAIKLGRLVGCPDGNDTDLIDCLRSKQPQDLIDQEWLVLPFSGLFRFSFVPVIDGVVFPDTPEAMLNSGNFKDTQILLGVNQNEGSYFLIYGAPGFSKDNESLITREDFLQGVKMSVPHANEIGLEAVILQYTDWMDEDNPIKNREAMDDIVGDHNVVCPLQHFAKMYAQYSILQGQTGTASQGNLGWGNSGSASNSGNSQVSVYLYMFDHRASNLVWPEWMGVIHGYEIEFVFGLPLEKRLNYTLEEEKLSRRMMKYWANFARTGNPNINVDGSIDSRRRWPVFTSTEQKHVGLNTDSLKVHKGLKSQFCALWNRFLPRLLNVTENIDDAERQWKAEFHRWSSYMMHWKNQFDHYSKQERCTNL
Cholinesterase (Equus caballus, UniProt P81908), sequence (P81908 whole entry): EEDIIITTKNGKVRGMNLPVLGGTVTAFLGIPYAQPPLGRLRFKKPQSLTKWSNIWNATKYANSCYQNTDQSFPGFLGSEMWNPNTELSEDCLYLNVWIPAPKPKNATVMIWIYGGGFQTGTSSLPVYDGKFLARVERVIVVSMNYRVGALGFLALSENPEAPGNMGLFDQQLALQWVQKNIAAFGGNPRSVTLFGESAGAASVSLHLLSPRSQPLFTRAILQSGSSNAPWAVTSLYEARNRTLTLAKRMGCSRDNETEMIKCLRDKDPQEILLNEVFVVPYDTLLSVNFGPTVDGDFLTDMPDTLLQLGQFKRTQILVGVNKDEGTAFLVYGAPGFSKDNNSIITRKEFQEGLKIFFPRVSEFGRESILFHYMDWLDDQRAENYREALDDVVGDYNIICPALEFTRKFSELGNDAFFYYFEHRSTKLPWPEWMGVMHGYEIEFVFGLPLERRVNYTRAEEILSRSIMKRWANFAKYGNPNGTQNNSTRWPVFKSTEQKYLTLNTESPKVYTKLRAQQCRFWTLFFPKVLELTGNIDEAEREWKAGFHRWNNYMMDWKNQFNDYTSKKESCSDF
Acetylcholinesterase (Homo sapiens, UniProt P22303), sequence (P22303 whole entry): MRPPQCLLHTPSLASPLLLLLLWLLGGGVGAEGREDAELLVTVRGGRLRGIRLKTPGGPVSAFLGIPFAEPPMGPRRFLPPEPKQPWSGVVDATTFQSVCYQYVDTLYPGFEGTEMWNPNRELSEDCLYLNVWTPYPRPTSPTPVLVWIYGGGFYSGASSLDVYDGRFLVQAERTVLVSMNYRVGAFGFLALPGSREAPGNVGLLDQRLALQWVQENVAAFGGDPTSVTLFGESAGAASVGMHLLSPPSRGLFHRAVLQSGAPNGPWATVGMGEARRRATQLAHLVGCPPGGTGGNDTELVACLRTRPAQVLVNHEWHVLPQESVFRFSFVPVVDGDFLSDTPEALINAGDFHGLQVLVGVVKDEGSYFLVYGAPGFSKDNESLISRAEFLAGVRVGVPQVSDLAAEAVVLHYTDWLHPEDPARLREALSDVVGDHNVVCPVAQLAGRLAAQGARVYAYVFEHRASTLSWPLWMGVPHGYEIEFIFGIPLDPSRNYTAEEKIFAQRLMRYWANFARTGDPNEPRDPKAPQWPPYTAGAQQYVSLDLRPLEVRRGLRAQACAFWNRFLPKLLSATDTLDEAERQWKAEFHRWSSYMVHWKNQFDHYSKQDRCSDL
Cholinesterase (Homo sapiens, UniProt P06276), sequence (P06276 whole entry): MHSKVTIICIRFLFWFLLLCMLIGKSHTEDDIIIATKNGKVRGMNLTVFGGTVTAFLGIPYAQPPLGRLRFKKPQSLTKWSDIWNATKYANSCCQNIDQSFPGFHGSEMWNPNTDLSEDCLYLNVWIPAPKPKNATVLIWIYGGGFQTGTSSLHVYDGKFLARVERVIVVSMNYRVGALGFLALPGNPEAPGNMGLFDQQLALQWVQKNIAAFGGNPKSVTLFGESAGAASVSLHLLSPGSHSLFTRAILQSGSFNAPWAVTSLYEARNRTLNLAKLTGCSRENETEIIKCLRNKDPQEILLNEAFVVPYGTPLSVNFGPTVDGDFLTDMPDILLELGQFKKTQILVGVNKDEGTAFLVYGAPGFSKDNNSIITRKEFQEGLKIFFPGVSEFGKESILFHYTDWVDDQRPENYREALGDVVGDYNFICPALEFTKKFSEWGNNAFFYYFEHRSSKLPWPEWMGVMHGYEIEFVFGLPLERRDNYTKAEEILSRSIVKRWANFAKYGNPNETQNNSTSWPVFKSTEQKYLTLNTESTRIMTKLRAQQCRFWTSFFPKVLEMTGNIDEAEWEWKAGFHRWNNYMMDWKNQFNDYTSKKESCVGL

`COc1cc(/C=C/C(=O)N2CCN(Cc3ccccc3)CC2)ccc1OC(=O)N(C)C`: the IC50 in [1] worked out at 39.1 µM; in [3], 16.7 µM; in test [5], 14.2 µM; in [6] it was 23.5 µM; in test [7], 12.1 µM; in test [9] it was 22.7 µM. In addition, the Ratio IC50 in test [2] came out at 2.3; in [4], 1.7; in test [8] it was 1.9.

Take `CCN(CC)C(=O)/C=C/c1ccc(OC(=O)N(C)C)c(OC)c1`: the IC50 was determined as 30.9 µM in [1]; 31.8 µM in [3]; 15.2 µM in test [5]; 13.1 µM in test [6]; 19.2 µM in test [7]; 17.8 µM in test [9]. In addition, the values for the Ratio IC50 in test [2], in test [4] and in [8] were 0.97, 0.86 and 0.93, respectively.

Consider `CCN(CC)C(=O)Oc1ccc(/C=C/C(=O)N2CCN(Cc3ccccc3)CC2)cc1OC`, for which the IC50 in test [1] amounted to 19.7 µM; in test [3] it was 23.2 µM; in [5] it was 10.6 µM; in test [6], 16.8 µM; in test [7] it was 8.7 µM; in test [9], 19.2 µM. Also, the Ratio IC50 in test [2] was found to be 0.8; in test [4], 1.6; in test [8], 2.2.

Regarding `CCN(CC)C(=O)Oc1ccc(/C=C/C(=O)N2CCc3ccccc3C2)cc1OC`, the IC50 in test [1] worked out at 8 µM; in test [3], 6.6 µM; in test [5] it was 7.7 µM; in test [6], 15.7 µM; in test [7], 2 µM; in test [9], 13.6 µM. For the same compound, the values for the Ratio IC50 in test [2], in test [4] and in [8] were 1.2, 2 and 6.8, respectively.

Regarding `COc1cc(/C=C/C(=O)N2CCc3ccccc3C2)ccc1OC(=O)N(C)OC`, the IC50 came out at 22.2 µM in test [1]; 6.8 µM in test [3]; 16.2 µM in test [5]; 12.3 µM in [6]; 29.2 µM in [7]; 11.8 µM in [9]. For the same compound, the Ratio IC50 in test [2] is 3.3; in test [4], 0.76; in [8], 0.4.

Take `CCN(C)C(=O)Oc1ccc(/C=C/C(=O)N2CCN(Cc3ccccc3)CC2)cc1`: the IC50 in [1] was found to be 9.8 µM; in test [3] it was 21.3 µM; in [5] it was 29.7 µM; in test [6], 14.8 µM; in test [7], 20.3 µM; in test [9], 25.6 µM. In addition, the Ratio IC50 came to 0.5 in test [2], 0.5 in [4] and 1.3 in test [8].

`COc1cc(/C=C/C(=O)N2CCCCC2)ccc1OC(=O)N(C)C`: the IC50 amounted to 33.3 µM in [1]; 32.5 µM in [3]; 13.1 µM in test [5]; 9.1 µM in [6]; 26.3 µM in [7]; 17.5 µM in test [9]. Also, the Ratio IC50 in test [2] came to 1; in test [4], 0.69; in test [8], 0.67.

Turning to `COc1cc(/C=C/C(=O)N2CCc3ccccc3C2)ccc1OC(=O)N(C)C`, the IC50 in test [1] is 35.7 µM; in test [3], 9.8 µM; in test [5], 9.5 µM; in [6], 17.9 µM; in test [7], 3.7 µM; in test [9] it was 26.8 µM. The Ratio IC50 was determined as 3.6 in test [2], 1.9 in [4] and 7.2 in test [8].

Take `COc1cc(/C=C/C(=O)N2CCc3ccccc3C2)ccc1OC(=O)N(c1ccccc1)c1ccccc1`: the IC50 is 16.9 µM in [1]; 12.2 µM in test [3]; 25.8 µM in [5]; 30.5 µM in test [6]; 23.9 µM in test [7]; 93.2 µM in test [9]. For the same compound, the figures for the Ratio IC50 in [2] and in test [4] were 1.4 and 1.2, respectively.

As for `COc1cc(/C=C/C(=O)O)ccc1O` [FERULATE], the IC50 in [5], in test [6], in [7] and in test [9] was over 100 µM each time.

One may read the IC50 as the concentration that inhibits the measured activity by half.
